Laboratory results as given in ChEMBL document CHEMBL4483862, “Open-source discovery of chemical leads for next-generation chemoprotective antimalarials” (2018).

Test system: Plasmodium berghei
Assay: Luciferase/luciferin-expressing antifolate-resistant parasites were used to infect a culture of HepG2 cells that were pre-incubated with compounds. Infected hepatocytes emit light due to the luciferase reaction. Assay results are presented as the percent inhibition of light emission compared to control. […]
Format: functional
Conditions: sporozoite; for IC90: read-out: LUCIFERASE INFECTION ASSAY - IC90

Structure (SMILES) | IC90 | further results
CCOC(=O)CN1N=C(/C=C/c2ccc(C(C)C)cc2)CCC1=O | > 10 µM | IC50 (HEPG2TOX_HILL_SLOPE 1.7, HEPG2TOX_R_SQUARED 0.981, read-out: LUCIFERASE INFECTION ASSAY - IC50): > 10 µM
O=C(Nc1cc(Cl)cc(Cl)c1)Nc1cc(Cl)cc(Cl)c1 | 1.35 µM | IC50 (HEPG2TOX_HILL_SLOPE 1.67, HEPG2TOX_R_SQUARED 0.958, PBLUC_HILL_SLOPE 0.797, PBLUC_R_SQUARED 0.657, read-out: LUCIFERASE INFECTION ASSAY - IC50): 0.0855 µM
COc1ccc(-c2cnc3ccc(NCC4CC4)nn23)cc1OC | 2.25 µM | IC50 (HEPG2TOX_HILL_SLOPE 1.71, HEPG2TOX_R_SQUARED 0.949, PBLUC_HILL_SLOPE 2.62, PBLUC_R_SQUARED 0.845, read-out: LUCIFERASE INFECTION ASSAY - IC50): 0.972 µM
CCCn1nc(C(=O)NCCc2ccc(-n3cccn3)cc2)c2ccccc2c1=O | 4.06 µM | IC50 (HEPG2TOX_HILL_SLOPE 1.69, HEPG2TOX_R_SQUARED 0.716, PBLUC_HILL_SLOPE 8.19, PBLUC_R_SQUARED 0.628, read-out: LUCIFERASE INFECTION ASSAY - IC50): 3.1 µM
Cc1ccc2nc(NC(=O)c3cccc(F)c3)c(C(=O)NC3CCCCC3)n2c1 | 0.924 µM | IC50 (HEPG2TOX_HILL_SLOPE 1.74, HEPG2TOX_R_SQUARED 0.865, PBLUC_HILL_SLOPE 15.6, PBLUC_R_SQUARED 0.75, read-out: LUCIFERASE INFECTION ASSAY - IC50): 0.803 µM
COc1cc(OC)cc(-c2cnc3cnc(-c4ccccc4C)cn23)c1 | 2.62 µM | IC50 (HEPG2TOX_HILL_SLOPE 1.68, HEPG2TOX_R_SQUARED 0.933, PBLUC_HILL_SLOPE 2.21, PBLUC_R_SQUARED 0.835, read-out: LUCIFERASE INFECTION ASSAY - IC50): 0.97 µM
O=C(C1CC1)N1CCc2nc(NCc3cccc(Oc4ccccc4)c3)ncc2C1 | 7.02 µM | IC50 (HEPG2TOX_HILL_SLOPE 1.68, HEPG2TOX_R_SQUARED 0.88, PBLUC_HILL_SLOPE 2.35, PBLUC_R_SQUARED 0.234, read-out: LUCIFERASE INFECTION ASSAY - IC50): 2.75 µM
CCN1C(=O)N(CCCc2cccnc2)C(=O)C12CCN(Cc1ccc3c(c1)Cc1ccccc1-3)CC2 | 2.58 µM | IC50 (HEPG2TOX_HILL_SLOPE 1.68, HEPG2TOX_R_SQUARED 0.934, PBLUC_HILL_SLOPE 11.7, PBLUC_R_SQUARED 0.742, read-out: LUCIFERASE INFECTION ASSAY - IC50): 2.14 µM
N#Cc1ncn(-c2nc(-c3ccccn3)nc3sc(-c4ccccc4)cc23)n1 | 7.91 µM | IC50 (HEPG2TOX_HILL_SLOPE 1.72, HEPG2TOX_R_SQUARED 0.411, PBLUC_HILL_SLOPE 3.83, PBLUC_R_SQUARED 0.832, read-out: LUCIFERASE INFECTION ASSAY - IC50): 4.46 µM
Cc1ccc(-c2csc(NC(=O)/C=C/c3cnn(C)c3)n2)o1 | 4.35 µM | IC50 (HEPG2TOX_HILL_SLOPE 1.69, HEPG2TOX_R_SQUARED 0.984, PBLUC_HILL_SLOPE 1.61, PBLUC_R_SQUARED 0.8, read-out: LUCIFERASE INFECTION ASSAY - IC50): 1.11 µM
CC(C)c1ccc(Nc2nccc3nc(-c4cccc(C(C)C)c4)[nH]c23)cc1 | > 10 µM | IC50 (HEPG2TOX_HILL_SLOPE 1.74, HEPG2TOX_R_SQUARED 0.684, PBLUC_HILL_SLOPE 1.1, PBLUC_R_SQUARED 0.805, read-out: LUCIFERASE INFECTION ASSAY - IC50): 2.41 µM
CNc1nc2cnc(Nc3cccc(NC(C)=O)c3)cc2n1-c1ccccc1 | > 10 µM | IC50 (HEPG2TOX_HILL_SLOPE 1.67, HEPG2TOX_R_SQUARED 0.953, read-out: LUCIFERASE INFECTION ASSAY - IC50): > 10 µM
COc1nc2c(c(-c3ccc(SC)cc3)c1C#N)Cc1ccccc1-2 | > 9.58 µM | IC50 (HEPG2TOX_HILL_SLOPE 1.73, HEPG2TOX_R_SQUARED 0.894, PBLUC_HILL_SLOPE 2.49, PBLUC_R_SQUARED 0.21, read-out: LUCIFERASE INFECTION ASSAY - IC50): 5.33 µM
COc1ccc(C(=O)N(c2nc3ccccc3s2)c2c(C)cccc2C)cc1 | > 10 µM | IC50 (HEPG2TOX_HILL_SLOPE 1.69, HEPG2TOX_R_SQUARED 0.759, PBLUC_HILL_SLOPE 12.9, PBLUC_R_SQUARED 0.198, read-out: LUCIFERASE INFECTION ASSAY - IC50): 9.04 µM
N#Cc1ccc(C(=O)Nc2nc3ccc(SC(F)F)cc3s2)cc1 | 3.39 µM | IC50 (HEPG2TOX_HILL_SLOPE 1.69, HEPG2TOX_R_SQUARED 0.978, PBLUC_HILL_SLOPE 16.3, PBLUC_R_SQUARED 0.469, read-out: LUCIFERASE INFECTION ASSAY - IC50): 2.96 µM
Cc1c(C)c(C)c(S(=O)(=O)Nc2ccc3c[nH]nc3c2)c(C)c1C | > 10 µM | IC50 (HEPG2TOX_HILL_SLOPE 1.73, HEPG2TOX_R_SQUARED 0.711, PBLUC_HILL_SLOPE 1.55, PBLUC_R_SQUARED 0.469, read-out: LUCIFERASE INFECTION ASSAY - IC50): 4.27 µM

Structure (SMILES) | IC90 | further results
c1ccc2c(-c3cc(Nc4ccc5[nH]ccc5c4)ncn3)cccc2c1 | 4.49 µM | IC50 (HEPG2TOX_HILL_SLOPE 1.68, HEPG2TOX_R_SQUARED 0.859, PBLUC_HILL_SLOPE 1.6, PBLUC_R_SQUARED 0.806, read-out: LUCIFERASE INFECTION ASSAY - IC50): 1.13 µM
Cc1ccc(N/N=C(\C=N\N)C(=O)c2ccc(Cl)cc2)cc1 | > 10.5 µM | IC50 (HEPG2TOX_HILL_SLOPE 1.68, HEPG2TOX_R_SQUARED 0.854, PBLUC_HILL_SLOPE 3.07, PBLUC_R_SQUARED 0.149, read-out: LUCIFERASE INFECTION ASSAY - IC50): 5.16 µM
CN(C)c1ccc(Nc2cc(-c3cccc4ccccc34)ncn2)cc1 | 6.64 µM | IC50 (HEPG2TOX_HILL_SLOPE 1.74, HEPG2TOX_R_SQUARED 0.777, PBLUC_HILL_SLOPE 1.75, PBLUC_R_SQUARED 0.668, read-out: LUCIFERASE INFECTION ASSAY - IC50): 1.9 µM
COc1cccc(-c2ccc3nnc(-c4ccc5c(c4)OCO5)n3c2)c1 | 0.981 µM | IC50 (HEPG2TOX_HILL_SLOPE 1.68, HEPG2TOX_R_SQUARED 0.984, PBLUC_HILL_SLOPE 2.05, PBLUC_R_SQUARED 0.784, read-out: LUCIFERASE INFECTION ASSAY - IC50): 0.337 µM
O=C(OCc1cnn(-c2ccccc2)c1)c1cc([N+](=O)[O-])ccc1N1CCCC1 | > 10 µM | IC50 (HEPG2TOX_HILL_SLOPE 1.67, HEPG2TOX_R_SQUARED 0.935, PBLUC_HILL_SLOPE 0.776, PBLUC_R_SQUARED 0.413, read-out: LUCIFERASE INFECTION ASSAY - IC50): 9.4 µM
COc1ccc(-c2cn3c(-c4ccc5ncccc5c4)cnc3cn2)cn1 | 4.4 µM | IC50 (HEPG2TOX_HILL_SLOPE 1.73, HEPG2TOX_R_SQUARED 0.987, PBLUC_HILL_SLOPE 1.52, PBLUC_R_SQUARED 0.763, read-out: LUCIFERASE INFECTION ASSAY - IC50): 1.04 µM
CN(C)CCNC(=O)c1ccc(-c2cn3c(-c4ccc(Cl)cc4)cnc3cn2)cc1 | 3.79 µM | IC50 (HEPG2TOX_HILL_SLOPE 1.7, HEPG2TOX_R_SQUARED 0.889, PBLUC_HILL_SLOPE 9.39, PBLUC_R_SQUARED 0.389, read-out: LUCIFERASE INFECTION ASSAY - IC50): 3 µM
Cc1ccc(C)n1-c1nc2ccc(C(=O)NCC(O)c3ccccc3)cc2s1 (centres undefined) | 4.67 µM | IC50 (HEPG2TOX_HILL_SLOPE 1.7, HEPG2TOX_R_SQUARED 0.986, PBLUC_HILL_SLOPE 2.65, PBLUC_R_SQUARED 0.703, read-out: LUCIFERASE INFECTION ASSAY - IC50): 2.04 µM
Cc1sc2nc3c4ccccc4c(Cl)nn3c(=O)c2c1C | > 10 µM | IC50 (HEPG2TOX_HILL_SLOPE 1.74, HEPG2TOX_R_SQUARED 0.905, PBLUC_HILL_SLOPE 1.87, PBLUC_R_SQUARED 0.353, read-out: LUCIFERASE INFECTION ASSAY - IC50): 5.64 µM
COc1ccc(Nc2cc(C)nc(Nc3ccc(OC)cc3)n2)cc1 | 3.93 µM | IC50 (HEPG2TOX_HILL_SLOPE 1.69, HEPG2TOX_R_SQUARED 0.922, PBLUC_HILL_SLOPE 13, PBLUC_R_SQUARED 0.323, read-out: LUCIFERASE INFECTION ASSAY - IC50): 3.32 µM
CCN(c1ccc(NC(=O)CCc2ccccc2Cl)cc1)C(C)C | > 10 µM | IC50 (HEPG2TOX_HILL_SLOPE 1.73, HEPG2TOX_R_SQUARED 0.92, read-out: LUCIFERASE INFECTION ASSAY - IC50): > 10 µM
CCOc1cc2c(cc1OCC)CN(c1cnn(-c3nc4ccccc4[nH]3)c(=O)c1Cl)CC2 | 2.69 µM | IC50 (HEPG2TOX_HILL_SLOPE 1.71, HEPG2TOX_R_SQUARED 0.884, PBLUC_HILL_SLOPE 7.85, 14.7, PBLUC_R_SQUARED 0.450, 0.666, read-out: LUCIFERASE INFECTION ASSAY - IC50): 2.1 µM
CCc1ccccc1Nc1c(Cl)c(C)nc2ncnn12 | > 11.5 µM | IC50 (HEPG2TOX_HILL_SLOPE 1.69, HEPG2TOX_R_SQUARED 0.869, PBLUC_HILL_SLOPE 4.69, PBLUC_R_SQUARED 0.317, read-out: LUCIFERASE INFECTION ASSAY - IC50): 7.45 µM
Cc1ccc(NCc2c(Cl)nc3sccn23)c(C)c1 | > 11.3 µM | IC50 (HEPG2TOX_HILL_SLOPE 1.69, HEPG2TOX_R_SQUARED 0.916, PBLUC_HILL_SLOPE 2.14, PBLUC_R_SQUARED 0.29, read-out: LUCIFERASE INFECTION ASSAY - IC50): 10.3 µM
CC/C(=N\OC(=O)c1cccc(C(F)(F)F)c1)c1ccc(-c2ccccc2F)cc1 | > 7.94 µM | IC50 (HEPG2TOX_HILL_SLOPE 1.72, HEPG2TOX_R_SQUARED 0.909, PBLUC_HILL_SLOPE 3.88, PBLUC_R_SQUARED 0.158, read-out: LUCIFERASE INFECTION ASSAY - IC50): 6.84 µM
Cc1c(-c2ccccc2)sc(N)c1C#N | > 15.4 µM | IC50 (HEPG2TOX_HILL_SLOPE 1.71, HEPG2TOX_R_SQUARED 0.831, PBLUC_HILL_SLOPE 15.7, PBLUC_R_SQUARED 0.066, read-out: LUCIFERASE INFECTION ASSAY - IC50): 14.9 µM
